From ChEMBL document CHEMBL5608207, “Development of narrow-spectrum topoisomerase-targeting antibacterials against mycobacteria” (Eur J Med Chem, 2024) come the findings set out here.

The structures appear in SMILES notation. Values after ≈ are worked out from the molar mass of the structure shown. Active and inactive are the calls of the source. Bounds are passed on as bounds.

In general, MIC90 refers to the lowest concentration that inhibits either 90% of growth or 90% of the strains tested, depending on the study. As usually defined, the MIC is the smallest concentration in the dilution series that meets the test's criterion for growth inhibition. Broadly, the IC50 is the concentration that inhibits the measured activity by half. One may read the inhibition as how much of the control response was suppressed.

The test system of series [1] is Mycolicibacterium smegmatis. Nature of the series: Antimycobacterial activity against Mycobacterium smegmatis MC2 incubated for 2 days by resazurin reduction microplate assay. It counts as functional. The conditions noted are these: MC2, 48 h, time 2 day.
Series [2] has as its system Mycobacteroides abscessus. Nature of the series: Antimycobacterial activity against Mycobacterium abscessus RIVM incubated for 1 day by resazurin reduction microplate assay. It counts as functional. The conditions noted are these: 24 h. For orientation: The colour change of resazurin is a common sign of viable cells or microbes.
For series [3], the system named is Mycobacterium tuberculosis. Nature of the series: Antimycobacterial activity against Mycobacterium tuberculosis H37Rv ATCC 25618 assessed as reduction in viability incubated for 6 days by resazurin reduction microplate assay. It is filed as functional. The conditions noted are these: H37Rv ATCC 25618, 144 h, time 6 day.
The test system of series [4] is Escherichia coli. Nature of the series: Antibacterial activity against Escherichia coli ATCC 25922 incubated for 18 hrs by serial broth microdilution method. It is filed as functional. In general terms: Broth dilution looks for growth in wells or tubes with falling amounts of substance.
A further series relates to Staphylococcus aureus. Nature of the series: Antibacterial activity against Staphylococcus aureus ATCC 29213 incubated for 18 hrs by serial broth microdilution method. It is filed as functional.
The subject of series [5] is Escherichia coli. Nature of the series: Antibacterial activity against Escherichia coli ATCC 25922 harboring deltaTolC mutant incubated for 18 hrs by serial broth microdilution method. It counts as functional.
The next series concerns Pseudomonas aeruginosa. Nature of the series: Antibacterial activity against Pseudomonas aeruginosa ATCC 27853 incubated for 18 hrs by serial broth microdilution method. It counts as functional.
The next series has as its system Acinetobacter baumannii. Nature of the series: Antibacterial activity against Acinetobacter baumannii ATCC17978 incubated for 18 hrs by serial broth microdilution method. It is filed as functional.
The next series has as its system Klebsiella pneumoniae. Nature of the series: Antibacterial activity against Klebsiella pneumoniae ATCC10031 incubated for 18 hrs by serial broth microdilution method. It counts as functional.
Series [6] concerns the target DNA topoisomerase 2-alpha (Homo sapiens) (UniProt P11388). Nature of the series: Inhibition of human DNA topoisomerase II alpha assessed as residual activity at 100 uM using supercoiled pNO1 plasmid as substrate incubated for 30 mins by diamond dye staining based fluorescence microplate reader assay relative to control.
For series [7] the target is unchanged. Nature of the series: Inhibition of human DNA topoisomerase II alpha assessed as residual activity at 10 uM using supercoiled pNO1 plasmid as substrate incubated for 30 mins by diamond dye staining based fluorescence microplate reader assay relative to control.
Series [8] relates to Mycobacterium tuberculosis. Nature of the series: Antimycobacterial activity against GFP-expressing Mycobacterium tuberculosis H37Rv infected in PMA-treated THP-1 cells assessed as bacterial viability at 10 uM pre-infected for 3 hrs prior to gentamycin addition for 1 hr followed by washout and compound addition measured after 4 days by fluorescence microscopic analysis (reference value: 100%). It counts as functional. The conditions noted are these: time 4 day.

Series [9] concerns Mycobacterium tuberculosis. Nature of the series: Antimycobacterial activity against GFP-expressing Mycobacterium tuberculosis H37Rv infected in PMA-treated THP-1 cells assessed as number of viable macrophages at 10 uM pre-infected for 3 hrs prior to gentamycin addition for 1 hr followed by washout and compound addition measured after 4 days by fluorescence microscopic analysis. It is filed as functional. The note with it: time 4 day.

For series [10], the system named is THP-1. Nature of the series: Cytotoxicity against human THP-1 cells assessed as reduction in viability at 40 uM pretreated with PMA for 48 hrs followed by washout and compound addition for 5 days by resazurin sodium salt method. The note with it: thp-1, 120 h, time 5 day. It is filed as toxicity, cell-based.
For series [11], the system named is THP-1. Nature of the series: Cytotoxicity against replicating human THP-1 cells upto 40 uM. It is filed as toxicity, cell-based. The conditions noted are these: thp-1, 40 µM.
For series [12], the system named is Mycobacterium tuberculosis. Nature of the series: Antimycobacterial activity against GFP-expressing Mycobacterium tuberculosis H37Rv infected in PMA-treated THP-1 cells assessed as bacterial viability pre-infected for 3 hrs prior to gentamycin addition for 1 hr followed by washout and compound addition measured after 4 days by fluorescence microscopic analysis. It is filed as functional, organism-based. The conditions noted are these: dose 1-30 µM, time 4.0 day.

Series [13] has as its system Mycobacterium tuberculosis. Nature of the series: Antimycobacterial activity against GFP-expressing Mycobacterium tuberculosis H37Rv infected in PMA-treated THP-1 cells assessed as increase in number of surviving macrophages at 10 to 30 uM pre-infected for 3 hrs prior to gentamycin addition for 1 hr followed by washout and compound addition measured after 4 days by fluorescence microscopic analysis. It counts as functional, organism-based. The note with it: dose 10-30 µM, time 4.0 day.

Another series relates to Segatella copri. Nature of the series: Antibacterial activity against Prevotella copri DSM 18205 measured at 15 mins interval for 24 hrs by broth microdilution method. It counts as functional.
The test system of series [14] is Bacteroides thetaiotaomicron. Nature of the series: Antibacterial activity against Bacteroides thetaiotaomicron DSM 2079 measured at 15 mins interval for 24 hrs by broth microdilution method. It is filed as functional.
Another series relates to Anaerostipes hadrus. Nature of the series: Antibacterial activity against Anaerostipes hadrus DSM 3319 measured at 15 mins interval for 24 hrs by broth microdilution method. It is filed as functional.
The target of series [15] is DNA gyrase subunit A/DNA gyrase subunit B (Mycobacterium tuberculosis (strain ATCC 25618 / H37Rv), UniProt P9WG45+P9WG47). Nature of the series: Inhibition of Mycobacterium tuberculosis DNA gyrase using […] DNA as substrate incubated for 30 mins by gel based method. It is filed as protein-complex assay.
Chain of DNA gyrase subunit A/DNA gyrase subunit B (P9WG45 whole entry): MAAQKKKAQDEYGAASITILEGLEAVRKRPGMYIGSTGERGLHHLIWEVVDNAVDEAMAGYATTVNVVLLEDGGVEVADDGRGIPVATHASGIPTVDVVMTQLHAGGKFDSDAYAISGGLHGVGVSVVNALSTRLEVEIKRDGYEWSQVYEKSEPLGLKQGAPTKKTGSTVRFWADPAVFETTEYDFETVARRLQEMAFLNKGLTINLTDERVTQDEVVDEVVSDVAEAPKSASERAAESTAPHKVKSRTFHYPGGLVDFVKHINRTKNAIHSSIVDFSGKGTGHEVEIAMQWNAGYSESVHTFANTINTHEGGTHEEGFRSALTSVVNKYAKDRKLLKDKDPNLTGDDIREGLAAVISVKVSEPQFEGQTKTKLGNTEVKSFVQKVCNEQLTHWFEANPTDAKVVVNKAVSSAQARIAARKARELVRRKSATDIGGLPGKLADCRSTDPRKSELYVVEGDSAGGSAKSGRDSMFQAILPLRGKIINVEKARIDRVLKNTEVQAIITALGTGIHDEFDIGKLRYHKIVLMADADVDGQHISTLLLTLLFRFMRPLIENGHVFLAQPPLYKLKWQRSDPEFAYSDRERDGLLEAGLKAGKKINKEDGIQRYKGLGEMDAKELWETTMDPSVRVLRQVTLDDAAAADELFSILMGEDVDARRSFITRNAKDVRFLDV
Chain of DNA gyrase subunit A/DNA gyrase subunit B (P9WG47 whole entry): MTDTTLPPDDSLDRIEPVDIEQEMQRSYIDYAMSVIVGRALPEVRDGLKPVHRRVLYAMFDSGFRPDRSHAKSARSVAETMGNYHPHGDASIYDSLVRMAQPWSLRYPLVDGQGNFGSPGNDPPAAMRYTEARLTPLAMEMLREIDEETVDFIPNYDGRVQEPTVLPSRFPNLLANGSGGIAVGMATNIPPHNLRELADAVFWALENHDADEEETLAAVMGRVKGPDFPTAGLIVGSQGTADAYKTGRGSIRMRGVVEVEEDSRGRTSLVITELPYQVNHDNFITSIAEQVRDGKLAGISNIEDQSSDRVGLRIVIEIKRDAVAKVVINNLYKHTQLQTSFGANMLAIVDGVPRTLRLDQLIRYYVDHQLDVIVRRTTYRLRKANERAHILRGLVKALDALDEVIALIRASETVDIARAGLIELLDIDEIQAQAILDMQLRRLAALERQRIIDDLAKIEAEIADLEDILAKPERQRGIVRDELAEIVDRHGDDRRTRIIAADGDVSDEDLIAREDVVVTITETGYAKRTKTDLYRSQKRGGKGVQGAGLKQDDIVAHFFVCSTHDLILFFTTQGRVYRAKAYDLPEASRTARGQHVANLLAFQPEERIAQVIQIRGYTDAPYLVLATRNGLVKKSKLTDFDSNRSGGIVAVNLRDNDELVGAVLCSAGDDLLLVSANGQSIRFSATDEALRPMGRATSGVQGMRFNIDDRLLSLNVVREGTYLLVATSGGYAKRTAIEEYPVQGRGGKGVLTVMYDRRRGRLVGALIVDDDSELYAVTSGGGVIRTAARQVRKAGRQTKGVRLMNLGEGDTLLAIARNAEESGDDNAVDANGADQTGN
Series [16] can be described thus: Inhibition of Mycobacterium smegmatis DNA gyrase using […] DNA as substrate incubated for 30 mins by gel based method. Details: species or system Mycolicibacterium smegmatis.
The next series has as its target DNA gyrase (Escherichia coli, UniProt P0AES4+P0AES6). Nature of the series: Inhibition of Escherichia coli DNA gyrase using relaxed pNO1 as substrate measured after 30 mins by SybrGOLD staining based fluorescence microplate reader analysis. It counts as protein-complex assay.
Series [17] in a line: Inhibition of Escherichia coli DNA topoisomerase IV […] using supercoiled pNO1 as substrate measured after 30 mins by SybrGOLD staining based fluorescence microplate reader analysis.
The next series has as its system MCF7. Nature of the series: Cytotoxicity against human MCF7 cells assessed as residual activity at 50 uM incubated for 72 hrs by MTS assay. It counts as functional.
A short description of series [18]: Acute toxicity in zebrafish embryo assessed as effect on embryo survival upto 5 mM measured for 4 days. The arrangement: species or system Danio rerio. The note with it: in vivo, 96 h, 5000 µM, time 4 day.
Series [19] can be described thus: Acute toxicity in zebrafish embryo assessed as effect on embryo development upto 5 mM measured for 4 days. The arrangement: species or system Danio rerio. The note with it: in vivo, 96 h, 5000 µM, time 4 day.
Series [20] can be described thus: Acute toxicity in zebrafish embryo assessed as change in behavior upto 5 mM measured for 4 days. The arrangement: species or system Danio rerio. The note with it: in vivo, 96 h, 5000 µM, time 4 day.
Series [21] addresses T1, hERG (KCNH2) (Homo sapiens, UniProt Q12809). Nature of the series: Inhibition of human ERG expressed in HEK293 cells at 10 uM by whole-cell patch clamp method relative to control. The note with it: HEK293 cells that express hERG. It counts as toxicity, cell-based. (In patch-clamp work, channel activity is measured electrically.)
Series [22] has as its target T1, hERG (KCNH2). Nature of the series: Inhibition of human ERG expressed in HEK293 cells at 50 uM by whole-cell patch clamp method relative to control. It counts as toxicity, cell-based. The note with it: HEK293 cells that express hERG.
Series [23] is described as follows: Kinetic solubility of compound in PBS at 100 uM incubated for 20 hrs in shaker by LC-MS/MS analysis. The note with it: read-out: Kinetic_solubility. It is filed as physicochemical.
In another series the test system is Enterobacter cloacae. Nature of the series: Antibacterial activity against Enterobacter cloacae ATCC13047 incubated for 18 hrs by serial broth microdilution method. It is filed as functional.

Chain of DNA topoisomerase 2-alpha (Homo sapiens) (P11388 whole entry): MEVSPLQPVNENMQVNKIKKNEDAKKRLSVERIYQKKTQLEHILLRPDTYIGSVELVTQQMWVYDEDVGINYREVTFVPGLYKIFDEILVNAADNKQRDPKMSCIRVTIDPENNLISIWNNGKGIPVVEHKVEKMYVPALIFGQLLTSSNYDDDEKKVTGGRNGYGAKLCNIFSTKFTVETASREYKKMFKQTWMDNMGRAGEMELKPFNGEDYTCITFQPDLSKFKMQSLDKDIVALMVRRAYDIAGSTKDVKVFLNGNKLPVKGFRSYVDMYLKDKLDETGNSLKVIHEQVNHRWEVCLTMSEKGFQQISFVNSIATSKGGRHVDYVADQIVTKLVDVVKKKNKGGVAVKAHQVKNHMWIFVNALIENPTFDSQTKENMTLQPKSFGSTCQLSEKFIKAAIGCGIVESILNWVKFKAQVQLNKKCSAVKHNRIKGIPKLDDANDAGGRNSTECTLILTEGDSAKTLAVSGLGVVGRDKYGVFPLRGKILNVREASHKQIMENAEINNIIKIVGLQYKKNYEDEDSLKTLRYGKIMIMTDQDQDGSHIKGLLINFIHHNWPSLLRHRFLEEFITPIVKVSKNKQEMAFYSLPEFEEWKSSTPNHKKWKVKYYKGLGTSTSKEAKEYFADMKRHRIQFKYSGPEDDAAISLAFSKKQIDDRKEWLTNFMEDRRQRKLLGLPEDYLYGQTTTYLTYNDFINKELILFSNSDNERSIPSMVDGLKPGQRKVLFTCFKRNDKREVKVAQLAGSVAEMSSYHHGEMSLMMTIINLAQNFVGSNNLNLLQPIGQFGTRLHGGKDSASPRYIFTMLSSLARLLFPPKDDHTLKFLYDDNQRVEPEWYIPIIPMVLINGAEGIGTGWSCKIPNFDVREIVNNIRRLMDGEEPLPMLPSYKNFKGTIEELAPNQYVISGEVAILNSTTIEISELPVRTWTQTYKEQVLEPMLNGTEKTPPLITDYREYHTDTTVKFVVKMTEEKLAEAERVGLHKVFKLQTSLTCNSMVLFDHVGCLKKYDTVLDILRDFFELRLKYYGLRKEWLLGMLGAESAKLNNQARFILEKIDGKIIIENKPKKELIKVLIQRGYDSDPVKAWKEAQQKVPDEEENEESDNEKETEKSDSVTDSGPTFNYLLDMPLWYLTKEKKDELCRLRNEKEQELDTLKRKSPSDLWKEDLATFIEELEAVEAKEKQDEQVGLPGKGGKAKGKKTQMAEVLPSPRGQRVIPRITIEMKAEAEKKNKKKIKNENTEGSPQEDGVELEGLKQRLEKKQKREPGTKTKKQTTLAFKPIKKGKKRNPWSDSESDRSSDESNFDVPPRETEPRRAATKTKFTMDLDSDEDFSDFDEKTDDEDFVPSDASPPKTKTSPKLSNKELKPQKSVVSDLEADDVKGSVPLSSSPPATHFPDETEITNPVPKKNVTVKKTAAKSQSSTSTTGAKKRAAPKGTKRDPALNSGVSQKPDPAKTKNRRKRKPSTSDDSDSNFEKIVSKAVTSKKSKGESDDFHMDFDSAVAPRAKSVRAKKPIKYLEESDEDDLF
T1 sequence (Q12809 whole entry): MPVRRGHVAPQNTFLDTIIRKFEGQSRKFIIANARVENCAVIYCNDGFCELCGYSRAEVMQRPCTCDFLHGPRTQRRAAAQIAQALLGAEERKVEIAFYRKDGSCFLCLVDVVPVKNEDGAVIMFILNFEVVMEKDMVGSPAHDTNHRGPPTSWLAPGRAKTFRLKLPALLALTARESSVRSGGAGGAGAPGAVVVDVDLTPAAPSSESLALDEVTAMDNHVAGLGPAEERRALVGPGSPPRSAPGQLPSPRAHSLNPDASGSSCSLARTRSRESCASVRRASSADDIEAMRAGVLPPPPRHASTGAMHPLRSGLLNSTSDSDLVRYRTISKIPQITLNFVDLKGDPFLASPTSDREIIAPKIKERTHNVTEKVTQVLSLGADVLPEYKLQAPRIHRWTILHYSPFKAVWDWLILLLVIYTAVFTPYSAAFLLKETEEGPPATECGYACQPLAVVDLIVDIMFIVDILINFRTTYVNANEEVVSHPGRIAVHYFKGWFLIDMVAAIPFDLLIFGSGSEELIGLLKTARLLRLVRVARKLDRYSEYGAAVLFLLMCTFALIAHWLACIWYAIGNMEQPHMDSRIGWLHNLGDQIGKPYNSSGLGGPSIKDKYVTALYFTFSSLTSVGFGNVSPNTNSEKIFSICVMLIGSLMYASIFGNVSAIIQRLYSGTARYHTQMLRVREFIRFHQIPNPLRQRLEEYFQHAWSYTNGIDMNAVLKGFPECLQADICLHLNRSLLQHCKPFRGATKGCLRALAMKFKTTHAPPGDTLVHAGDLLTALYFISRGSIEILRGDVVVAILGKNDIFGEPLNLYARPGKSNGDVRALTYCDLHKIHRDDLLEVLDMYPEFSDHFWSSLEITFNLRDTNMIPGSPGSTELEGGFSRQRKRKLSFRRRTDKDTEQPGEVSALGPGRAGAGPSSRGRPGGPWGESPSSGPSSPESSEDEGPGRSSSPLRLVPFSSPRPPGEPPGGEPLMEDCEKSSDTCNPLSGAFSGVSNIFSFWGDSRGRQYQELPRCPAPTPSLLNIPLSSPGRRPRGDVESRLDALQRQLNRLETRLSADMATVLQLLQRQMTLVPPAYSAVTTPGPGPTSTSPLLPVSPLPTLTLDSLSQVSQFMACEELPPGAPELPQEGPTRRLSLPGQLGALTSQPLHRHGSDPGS

Regarding `Cc1[nH]c(C(=O)Nc2nc3c(OC4CCNC4)cc(C(=O)O)cc3s2)c(Cl)c1Cl` (stereo unspecified), the MIC90 was more than 20 µM in series [1]; 10 µM (≈ 4.55 µg/mL) in [2]; 2.5 µM (≈ 1.14 µg/mL) in series [3]; 130 µM (≈ 59.2 µg/mL) against Escherichia coli [4]; more than 130 µM in the series with Staphylococcus aureus; 130 µM (≈ 59.2 µg/mL) in the series on Escherichia coli [5]. Also, the MIC90 against Pseudomonas aeruginosa, against Acinetobacter baumannii and with Klebsiella pneumoniae was more than 130 µM throughout. For the same compound, the Activity in [6] and in series [7] was 102% in each case.

As to `CO[C@H]1/C=C/O[C@@]2(C)Oc3c(C)c(O)c4c(O)c(c(/C=N/N5CCN(C)CC5)c(O)c4c3C2=O)NC(=O)/C(C)=C\C=C\[C@H](C)[C@H](O)[C@@H](C)[C@@H](O)[C@@H](C)[C@H](OC(C)=O)[C@@H]1C` [RIFAMPIN], the Activity is recorded as 1.4% in series [8] and 100% in [9].

Regarding `Cc1[nH]c(C(=O)Nc2nc3c(OC(CN4CCN(C)CC4)c4ccccc4)cc(C(=O)O)cc3s2)c(Cl)c1Cl` (stereo unspecified), the MIC90 in series [1] amounted to 2.5 µM (≈ 1.47 µg/mL); in series [2], 2.5 µM (≈ 1.47 µg/mL); in [3], 20 µM (≈ 11.8 µg/mL).

On to `Cc1[nH]c(C(=O)Nc2nc3c(OC(CN4CCOCC4)c4ccccc4)cc(C(=O)O)cc3s2)cc1F` (stereo unspecified), for which the figures for the MIC90 in series [1], in series [2] and in series [3] were 10 µM (≈ 5.25 µg/mL), 2.5 µM (≈ 1.31 µg/mL) and more than 40 µM, respectively. In the series with Staphylococcus aureus, the outcome was inactive.

Turning to `Cc1[nH]c(C(=O)Nc2nc3c(OC(C)C4CCNCC4)cc(C(=O)O)cc3s2)c(Cl)c1Cl` (stereo unspecified), the MIC90 in series [1] is 2.5 µM (≈ 1.24 µg/mL); in series [2], 2.5 µM (≈ 1.24 µg/mL); in series [3], 0.63 µM (≈ 0.313 µg/mL); against Escherichia coli [4] it was more than 120 µM; against Staphylococcus aureus, more than 120 µM; in the series on Escherichia coli [5], 2 µM (≈ 0.995 µg/mL). Further, the MIC90 in the series with Pseudomonas aeruginosa, with Acinetobacter baumannii and against Klebsiella pneumoniae was more than 120 µM in each case. The Activity result was “Non-Toxic” in the series on THP-1 [10]; “Non-Toxic” in the series with THP-1 [11]; “Dose-Dependent Effect” in [12]; 96% in series [6]; 81% in the series on MCF7; “Non-Toxic” in series [18]. In addition, the Activity entry in series [19] was “Non-Toxic”; in [20], “Non-Toxic”; in series [7], 96%. For the same compound, the outcome in [13] was Active. For the same compound, the minimum inhibitory concentration (MIC) (in the series on Segatella copri; in [14]; against Anaerostipes hadrus) was more than 20 µM in each case. Further, the IC50 in series [15] is 4.1 nM; in [16], 5.7 nM; against DNA gyrase it was less than 10 nM; in [17], 99 nM. This compound returned an inhibition at 10 µM against hERG (KCNH2) [21] of 4.2%. For the same compound, the inhibition at 50 µM at hERG (KCNH2) [22] worked out at 29%. Further, the solubility kinetic at 20 h, 100 µM in series [23] worked out at 1 µM (≈ 0.497 µg/mL).

As to `Cc1[nH]c(C(=O)Nc2nc3c(OC(CN(C)C)c4ccccc4)cc(C(=O)O)cc3s2)cc1F` (stereo unspecified), the MIC90 in [1] turned out to be 1.25 µM (≈ 0.603 µg/mL); in [2] it was 0.31 µM (≈ 0.15 µg/mL); in series [3], 2.5 µM (≈ 1.21 µg/mL); in the series with Escherichia coli [4], 133 µM (≈ 64.2 µg/mL); in the series on Staphylococcus aureus, 33 µM (≈ 15.9 µg/mL); against Pseudomonas aeruginosa, 33 µM (≈ 15.9 µg/mL). The MIC90 with Acinetobacter baumannii is more than 133 µM; against Klebsiella pneumoniae, 2 µM (≈ 0.965 µg/mL); in the series on Enterobacter cloacae, more than 133 µM. Also, the Activity in [6] and in series [7] was 99% each time.

On to `Cc1[nH]c(C(=O)Nc2nc3c(OC(CN(C)C)c4ccccc4)cc(C(=O)O)cc3s2)c(Cl)c1Cl` (stereo unspecified), for which the MIC90 was found to be 0.16 µM (≈ 0.0853 µg/mL) in [1], 0.63 µM (≈ 0.336 µg/mL) in series [2] and 1.25 µM (≈ 0.667 µg/mL) in [3].

Take `Cc1[nH]c(C(=O)Nc2nc3c(OC(CN4CCC(N(C)C)CC4)c4ccccc4)cc(C(=O)O)cc3s2)c(Cl)c1Cl` (stereo unspecified): the MIC90 in series [1] was found to be 5 µM (≈ 3.08 µg/mL); in [2], 2.5 µM (≈ 1.54 µg/mL); in series [3], 10 µM (≈ 6.17 µg/mL).
